Assay results published in PubChem BioAssay (NCI).
Several values for one entry are separate records, joined by “and”; a condition that tells them apart may be missing. Equal entries are not always repeated.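 Method: 48-hour compound exposure of cells in 96-well plates, five concentrations, linear interpolation of endpoints. The concentration for 50% growth inhibition is given as GI50. TGI denotes the concentration required for complete inhibition of growth.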

How the values were obtained:
Assay in all cases: DTP human tumour cell line panel, 48 h
DMS 114 small cell lung = tested on: DMS 114 small cell lung
EKVX NSCLC = tested on: EKVX NSCLC
HT29 colon = tested on: HT29 colon
LXFL 529 NSCLC = tested on: LXFL 529 NSCLC
RPMI-8226 leukemia = tested on: RPMI-8226 leukemia
SF-268 CNS = tested on: SF-268 CNS
SW-620 colon = tested on: SW-620 colon
TK-10 renal = tested on: TK-10 renal
UACC-62 melanoma = tested on: UACC-62 melanoma
SNB-19 CNS = tested on: SNB-19 CNS

Structure (SMILES) | TGI (DMS 114 small cell lung) | TGI (EKVX NSCLC) | TGI (HT29 colon) | TGI (LXFL 529 NSCLC) [µM] | TGI (RPMI-8226 leukemia) [µM] | TGI (SF-268 CNS) | TGI (SW-620 colon) [µM] | TGI (TK-10 renal) | TGI (UACC-62 melanoma) [µM] | TGI (SNB-19 CNS) [µM] | GI50 (DMS 114 small cell lung) | GI50 (EKVX NSCLC) [µM] | GI50 (HT29 colon) | GI50 (RPMI-8226 leukemia) | GI50 (SF-268 CNS) | GI50 (SNB-19 CNS) | GI50 (SW-620 colon) | GI50 (TK-10 renal) [µM] | GI50 (UACC-62 melanoma)
CC(C)C(=O)Nc1nc2c(ncn2C2OC(CO)C(O)C2O)c(=O)[nH]1 (centres undefined) | > 100 µM | > 100 µM | > 100 µM | > 100 | > 100 | > 100 µM | > 100 | > 100 µM | > 100 | – | – | – | – | – | – | – | – | – | –
CN[C@@H](C)[C@@H](NC)c1ccccc1 | > 100 µM | > 100 µM | > 100 µM | > 100 | > 100 | – | > 100 | > 100 µM | > 100 | – | – | – | – | – | – | – | – | – | –
CCCO/S(=N\S(=O)(=O)c1ccccc1)c1ccccc1[N+](=O)[O-] (centres undefined) | > 100 µM | > 100 µM | > 100 µM | > 100 | > 100 | > 100 µM | > 100 | – | > 100 | > 100 | – | – | – | – | – | – | – | – | –
O=[N+]([O-])c1ccc(N2N=C(c3ccc(NCc4nc5ccccc5[nH]4)cc3)CC2c2ccco2)cc1 (centres undefined) | 50.9 µM | – | 90.6 µM | 38.5 | 94.5 | > 100 µM | > 100 | > 100 µM | 69.3 | > 100 | – | – | – | – | – | – | – | – | –
O=S(=O)(c1ccccc1)C1CN2OC1(S(=O)(=O)c1ccccc1)CC2c1ccc(Br)cc1 (centres undefined) | > 100 µM | > 100 µM | > 100 µM | – | > 100 | > 100 µM | > 100 | > 100 µM | > 100 | > 100 | – | – | – | – | – | – | – | – | –
COc1cc(C=O)c(-c2cc(OC)c(OC)cc2C=O)cc1OC | 88.3 µM | > 100 µM | > 100 µM | > 100 | > 100 | > 100 µM | > 100 | > 100 µM | > 100 | > 100 | – | – | – | – | – | – | – | – | –
CC[C@H]1CN2CCc3cc(OC)c(OC)cc3[C@@H]2C[C@@H]1C[C@H]1NCCc2c1[nH]c1ccc(O)cc21 | 0.0184 µM and 0.0571 µM | 0.401 µM and 0.125 µM | 0.0862 µM and 0.341 µM and 0.11 µM | – | – | 0.0931 µM and 0.075 µM and 0.263 µM | – | 0.277 µM and 0.875 µM and 0.728 µM | – | – | 0.0047 µM and 0.0133 µM | 0.0409 | 0.0271 µM and 0.0332 µM | 0.0272 µM and 0.0305 µM | 0.0315 µM and 0.0253 µM | 0.0249 µM and 0.0636 µM | 0.0286 µM and 0.0339 µM | 0.0943 | 0.0249 µM and 0.0448 µM
COC1(OC)CC2C(=O)N(Cc3ccccc3)C1C=C2S(=O)(=O)c1ccccc1 (centres undefined) | 31.9 µM | 33.1 µM | 33.8 µM | 34.2 | 63.1 | > 100 µM | 28.5 | 49.1 µM | 31.3 | 54.7 | – | – | – | – | – | – | – | – | –
CC(C)N(C(=O)C12C3C4C1(I)C1C2C3(I)C41C(=O)N(C(C)C)C(C)C)C(C)C (centres undefined) | – | > 100 µM | > 100 µM | > 100 | > 72.5 | > 100 µM | > 59.6 | > 100 µM | > 100 | > 100 | – | – | – | – | – | – | – | – | –
Cc1cc(NS(=O)(=O)c2ccc(Nc3c4ccccc4nc4c(C(=O)N5CCN(CCO)CC5)ccc(Cl)c34)cc2)no1 | > 100 µM | – | > 100 µM | – | > 100 | > 100 µM | – | > 100 µM | > 100 | > 100 | – | – | – | – | – | – | – | – | –
O=Cc1ccc2c(c1-c1c(C=O)ccc3c1OCO3)OCO2 | > 100 µM | > 100 µM | > 100 µM | > 100 | > 100 | > 100 µM | > 100 | > 100 µM | > 100 | > 100 | – | – | – | – | – | – | – | – | –
